From patent US10829528B2, “Therapeutic agents for neurological and psychiatric disorders” (VIB VZW, priority 2016, dated 2020)
Where no end group is shown, it is not given here.

Experiments:
[1] = system: cultured hippocampal neurons; assay: FM1-43 dye labeling of presynaptic vesicle recycling; format: cell-based, mouse; settings: 1 μM sAPPα in the presence of CGP
Method: We assessed the effect of sAPPα on synaptic vesicle recycling (ref6) using the activity-dependent dye FM1-43. We measured density (D) and intensity (ΔF) of FM1-43 uptake in presynaptic vesicles turned over by stimulation of 30 action potentials (APs) at a rate of 1 Hz in cultured hippocampal neurons.
The experiments were performed in mature (15-28 days in vitro) cultures. Hippocampal neurons were imaged using a FV1000 spectral Olympus confocal microscope using a 60×1.2 NA water immersion objective. The experiments were conducted at room temperature in extracellular Tyrode solution containing (in mM): NaCl, 145; KCl, 3; glucose, 15; HEPES, 10; MgCl2, 1.2; CaCl2), 1.2; pH adjusted to 7.4 with NaOH. For FM-based imaging and analysis, activity-dependent FM1-43 (10 μM) styryl dye was used to estimate basal synaptic vesicle recycling using previously described protocol48. Briefly, action potentials were elicited by passing 50 mA constant current for 1 ms through two platinum wires, separated by ˜7 mm and close to the surface of the coverslip. The extracellular medium contained non-selective blocker of glutamate receptors (0.5 mM kynurenic acid) to block recurrent neuronal activity. 30 stimuli at 1 Hz were applied during FM1-43 loading, while 800 stimuli at 2 Hz during unloading. The fluorescence of individual synapses was determined from the difference between images obtained after staining and after destining (ΔF). Detection of signals was done using custom-written scripts in MATLAB (Mathworks) as described before48.

[2] = system: Schaffer collateral (SC) synapses in mouse hippocampus; assay: fEPSP field recordings at Schaffer collateral synapses in hippocampal slices; format: cell-based
Method: We assessed the effect of sAPPα on the synaptic properties of Schaffer collateral (SC) synapses in mouse hippocampus. […] As change in probability of neurotransmitter release inversely correlates with a change in short-term facilitation, we applied a burst of 5 stimuli at 3 different frequencies (20, 50, and 100 Hz) to induce short-term facilitation at the SC. […] Preincubation with the GABABR antagonist CGP54626 (CGP, 10 μM) for 20 min before the incubation with sAPPα blocked its effects on the peak amplitude of the fESPS and the input/output slopes (FIG. 10f-g). Accordingly, CGP occluded sAPPα-induced augmentation of short-term facilitation at 20, 50, and 100 Hz burst frequencies (FIG. 10h-j).
On the day of recording the brain of a 2-month-old Balb/c male mouse was quickly removed and 400 μm-thick horizontal slices were prepared in an ice-cold oxygenated buffer containing (in mM): sucrose, 182; KCl, 2.5; MgSO4, 2; NaH2PO4, 1.25; NaHCO3, 25; CaCl2), 0.8; MgCl2, 5; glucose, 25; ascorbate, 1; HEPES, 20. The slicing procedure was performed using a Leica VT1200 vibrating microtome. Slices were then transferred to a submerged recovery chamber at room temperature containing oxygenated (95% 02 and 5% C02) storage artificial cerebrospinal fluid (ACSF) for 30 min before the incubations (see below). The storage ACSF contained, in mM: NaCl, 100; KCl, 2.5; MgSO4, 2; NaH2PO4, 1.25; NaHCO3, 25; CaCl2), 1.2; MgCl2, 3; glucose, 20; ascorbate, 1; sodium pyruvate,3 and HEPES, 20. The slices were incubated in the incubation chambers perfused with oxygenated storage ACSF containing the experimental agents for 90 min before performing field recordings: In the incubation chamber, control slices were perfused with normal storage ACSF while sAPPα slices were perfused with storage ACSF containing 1 μM sAPPα. CGP slices were perfused with storage ACSF containing 10 μM CGP54626 (Tocris). CGP+sAPPα slices were preincubated in the chamber perfused with ACSF+CGP before being transferred into the chamber perfused with storage ACSF implemented with 10 μM CGP54626+1 μM sAPPα. All recordings were performed at 32-33° C. in a recording chamber perfused with ACSF (4 ml/min) on the stage of an Olympus BX51WI microscope equipped with IR optics and oblique illumination. Recording ACSF contains, in mM: NaCl, 129; KCl, 2.5; CaCl2), 1.2; MgCl2, 1.2; NaHCO3, 25; NaH2PO4, 1.25; glucose, 15. Stimulation of the Schaffer-collateral was delivered through a glass suction electrode (10-20 μm tip) filled with ACSF. fEPSPs were recorded using a glass pipette containing ACSF (1-2 MΩ) from proximal synapses in the CA1 stratum radiatum. Field recording experiments were analyzed using Clampfit.

[3] = system: primary hippocampal neurons; assay: mEPSCs & mIPSCs in cultured primary hippocampal neurons (wild type); format: cell-based, mouse; settings: for effect on mEPSC frequency (in words) / effect on mIPSC frequency (in words): 250 nM each
Method: mEPSCs & mIPSCs are measured in cultured primary hippocampal neurons at baseline and following acute application of agonists. Excitatory terminals selectively express the sushi domain-containing GABABR1a isoform (ref18), where it functions to inhibit neurotransmitter release (ref 24). Acute exposure of primary hippocampal neurons from wild type mice to 30μM baclofen, a GABABR agonist, or 250 nM sAPPα (Fc cleaved) reduces the frequency of miniature excitatory postsynaptic currents (mEPSCs) by 68% (FIG. 8 a,b) and 39% (FIG. 8 c,d), respectively, with no effect on mEPSC amplitude (FIG. 8e). […] Acute application of 30 μM baclofen or 250 nM purified sAPPα reduces the frequency of miniature inhibitory postsynaptic currents (mIPSCs) by 63% (FIG. 8a, 9a) and 44% (FIG. 8c, 9b), respectively, which is blocked by pretreatment with the GABABR antagonist CGP55845 (CGP, 5 μM) (FIG. 8f, 9d). Application of sAPPα causes a minor (14%) reduction on mIPSC amplitude (FIG. 8e, 9c). […] Baclofen is known to reduce the frequencies of mEPSCs and mIPSCs, which we have also confirmed. […] To confirm that the agonist is acting through GABABR1a, the agonist is tested in cultures with shRNA mediated knockdown of GABABR1a or antisense oligonucleotides mediated exon skipping of the exon encoding the Sushi domain 1 of GABABR1a. Antagonists are tested by treatment in combination with the agonist, Baclofen. […] As an antagonist we test an antibody against the sushi domain sequence (SEQ ID No: 5): […] SWTDMDTPSRCV. An antibody specifically binding to this domain which acts as an antagonist increases the frequencies of mEPSCs and mIPSCs. sAPPα also reduces mEPSC and mIPSC frequency in App/Aplp1 dKO cultures (FIG. 8j, 9f), excluding the possibility that sAPPα interferes with a complex of full-length APP and GABABR1 to exert its effect on GABABR signaling.
Hippocampal neurons were cultured from E18 C57/B16 wild type mice or APP/APLP1 dKO mice (provided by Ulrike Muller46) and plated on poly-D-lysine (Millipore), and laminin (Invitrogen) coated coverslips (Nalge Nunc International). Neurons were maintained in Neurobasal medium (Invitrogen) supplemented with B27, glucose, glutamax, penicillin/streptomycin (Invitrogen) and 25 μM β-mercaptoethanol.
Single neurons from wild type or APP/APLP1 null mutant embryos (E18) were recorded within the large neuronal network at DIV 12-15. The intracellular whole-cell pipette medium contained (in mM): 136 KCl, 18 HEPES, 4 Na-ATP, 4.6 MgCl2, 15 Creatine Phosphate, 1 EGTA and 50 U/ml Phospocreatine Kinase (300 mOsm, pH 7.30). Regular external solution contained 2 mM/2 mM Ca2+/Mg2+(in mM: 140 NaCl, 2.4 KCl, 2 CaCl2), 2 MgCl2, 10 HEPES, 14 Glucose (300 mOsm, pH 7.30)) and TTX (1 μM). Pharmacological reagents (30 μM baclofen, 5 μM CGP), sAPLP1, full length sAPP and sAPP derived peptides (250 nM each) were bath applied (dissolved in external medium described above) using a separate gravity driven application inlet. Recordings were done in whole cell voltage clamp configuration at −70 mV with a double EPC-10 amplifier (HEKA Elektronik) under control of Patchmaster v2×32 software (HEKA Elektronik). Currents were low-pass filtered at 3 kHz and stored at 20 kHz. Patch pipettes were pulled from borosilicate glass using a multi-step puller (P-1000; Sutter Instruments). Pipette resistance ranged from 3 to 5 MΩ and was compensated to 75-80%. Only cells with series resistances <15 MΩ were included in analysis. All recordings were done at room temperature. Spontaneous events were detected using Mini Analysis program (Synaptosoft). mEPSCs and mIPSCs were separated on the basis of their distinct decay kinetics, using a threshold of 5 ms47. Baseline was determined from an average of 60 sec of recordings prior to protein or drug treatment. Effect of treatment was determined from an average of 30 sec recordings after 140 sec of protein or drug treatment.

With C[C@H](NC[C@H](O)CP(=O)(O)CC1CCCCC1)c1ccc(Cl)c(Cl)c1 [CGP54626, reference compound] the “occlusion of the sAPPα effect on presynaptic strength” value [1] was “occluded”, the “block of sAPPα effects on peak fEPSP amplitude and input/output slopes” value ([2]; 10 μM preincubation for 20 min before sAPPα) was “blocked” and the “occlusion of sAPPα-induced augmentation of short-term facilitation” value ([2]; 10 μM, 20, 50 and 100 Hz burst frequencies) was “occluded”.

In the case of C[C@H](NC[C@H](O)CP(=O)(O)Cc1ccccc1)c1ccc(Cl)c(Cl)c1 [CGP55845, reference compound], the “block of the reduction of mIPSC frequency” value ([3]; pretreatment with antagonist 5 μM) is reported as “blocked” and the “block of the sAPPα effect on mEPSC frequency” value ([3]; pretreatment with antagonist 5 μM, then 250 nM sAPPα) is reported as “blocks the effect of sAPPα on mEPSC frequency”.

With NCC(CC(=O)O)c1ccc(Cl)cc1 (stereo not shown) [baclofen, reference compound] the “reduction of mEPSC frequency” value ([3]; 30 µM) was 68% and the “reduction of mIPSC frequency” value ([3]; 30 µM) was 63%.

“DDSDVWWGGADTDYADG [17mer peptide, DDSDVWWGGADTDYADG]” was tested, and the “effect on mEPSC frequency (in words)” value ([3]; acute application) was “reduces mEPSC frequency to a similar degree as sAPPα” and the “effect on mIPSC frequency (in words)” value ([3]; acute application) was “reduce mIPSC frequency to a similar extent as sAPPα”.

B1: sAPLP1: soluble ectodomain of APP-like protein 1 (protein, UniProt Q03157 39-584, looked up)
extracellular domain: NLAVGSPSAAEAPGSAQVAGLCGRLTLHRDLRTGRWEPDPQRSRRCLLDPQRVLEYCRQMYPELHIARVEQAAQAIPMERWCGGTRSGRCAHPHHEVVPFHCLPGEFVSEALLVPEGCRFLHQERMDQCESSTRRHQEAQEACSSQGLILHGSGMLLPCGSDRFRGVEYVCCPPPATPNPSGMAAGDPSTRSWPLGGRAEGGEDEEEVESFPQPVDDYFVEPPQAEEEEEEEEERAPPPSSHTPVMVSRVTPTPRPTDGVDVYFGMPGEIGEHEGFLRAKMDLEERRMRQINEVMREWAMADSQSKNLPKADRQALNEHFQSILQTLEEQVSGERQRLVETHATRVIALINDQRRAALEGFLAALQGDPPQAERVLMALRRYLRAEQKEQRHTLRHYQHVAAVDPEKAQQMRFQVQTHLQVIEERMNQSLGLLDQNPHLAQELRPQIQELLLAEHLGPSELDASVPGSSSEDKGSLQPPESKDDPPVTLPKGSTDQESSSSGREKLTPLEQYEQKVNASAPRGFPFHSSDIQRDELAPSGTGVSRE
modifications: extracellular domain
For B1, the “effect on mEPSC frequency (in words)” value ([3]; acute application) was “not” and the “reduction of mIPSC frequency” value ([3]; acute application, 30 μM baclofen, 250 nM proteins) was 17%.

B2: ExD-AcD: extension domain-acidic domain fragment of APP695 (195-298aa), non-Fc protein used in ITC and functional assays (protein)
chain: SVDSADAEEDDSDVWWGGADTDYADGGEDKVVEVAEEEEVADVEEEEADDDEDVEDGDEVEEEAEEPYEEATERTTSTATTTTTTTESVEEVVRVPTTAASTPD
modifications: left off: a dimerising Fc or GST; small tags and cut ends
notes: extension domain-acidic domain fragment of APP695 (195-298aa), non-Fc protein used in ITC and functional assays
For B2, the “effect on mEPSC frequency (in words)” value ([3]; acute application) was “reduces mEPSC frequency to a similar degree as sAPPα” and the “effect on mIPSC frequency (in words)” value ([3]; acute application) was “reduce mIPSC frequency to a similar extent as sAPPα”.
